One series concerns the target T1, acid ceramidase (Homo sapiens, UniProt Q13510).
T1 construct: Cell lysates overexpressing acid ceramidase were used as the enzyme source; expressed in transfected cells
T1 sequence (Q13510 22-395): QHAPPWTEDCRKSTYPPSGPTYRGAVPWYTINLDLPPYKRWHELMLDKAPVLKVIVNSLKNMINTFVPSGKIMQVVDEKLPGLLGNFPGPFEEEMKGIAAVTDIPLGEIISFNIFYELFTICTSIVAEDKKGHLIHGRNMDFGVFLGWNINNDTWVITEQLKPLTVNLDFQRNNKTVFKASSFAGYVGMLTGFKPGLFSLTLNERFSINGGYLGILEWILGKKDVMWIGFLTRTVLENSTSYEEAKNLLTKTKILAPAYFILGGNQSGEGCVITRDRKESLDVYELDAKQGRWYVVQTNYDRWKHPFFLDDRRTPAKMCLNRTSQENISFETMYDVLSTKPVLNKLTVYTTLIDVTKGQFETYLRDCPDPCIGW
Kind of series: Acid ceramidase inhibition, biochemical fluorescent assay with cell lysates overexpressing acid ceramidase, substrate Rbm14-12. The following applies: substrate Rbm14-12 6.3 μM. As for the experimental part: The ability of exemplary compounds to inhibit acid ceramidase was measured.
Cell lysates overexpressing acid ceramidase were used as the enzyme source for compound potency determination in a biochemical fluorescent assay. Briefly, compounds were preincubated with 10 μg protein of cell lysates in a dose-response manner for 1 hr at RT in the assay buffer containing 25 mM NaAC and 100 mM NaCl, pH 4.5. The reaction was initiated by the addition of substrate Rbm14-12 at a final concentration of 6.3 μM. The reaction was run at RT for 1 hr before it was stopped by the addition of the stopping buffer containing 20% methanol (v/v), 1 mg/ml NaIO4, 0.1 M glycine, pH 10.6. The samples were incubated with the stopping buffer at RT for 1 hr to allow the fluorescent product to be formed. Finally, the plate was read with SpectraMax i3 plate reader (Molecular Devices) at ex360 nm and em446 nm. Data were collected and used to determine the IC50 values of compounds by curve fitting to the four-parameter inhibition equation.

Series [1] in a line: Compound solubility in water.
[2] abbreviates: pH 4.5, 1 hr preincubation at RT.

What is called IC50 is the concentration needed to halve the response being measured. Read a low IC50 as inhibition by little substance. A word on the solubility: it is the concentration that dissolves in the medium under given conditions. Read a low solubility as a poorly soluble substance.

Converted amounts (≈) assume the structure as drawn.

`COc1nc2cc(F)c(N3CCOCC3)cc2n1C(=O)NCC#CC(C)C` [Example 321b, 5-fluoro-2-methoxy-N-(4-methylpent-2-yn-1-yl)-6-morpholino-1H-benzo[d]imidazole-1-carboxamide] returned an IC50 against acid ceramidase (pH 4.5) of 0.2 to 1 µM. This compound also came in with a solubility in series [1] of 3 µg/mL (≈ 8.01 µM).
For `COc1nc2cc(N3CCOCC3)ccc2n1C(=O)NCCCOC(F)(F)F` [Example 233b, 2-methoxy-5-morpholino-N-(3-(trifluoromethoxy)propyl)-1H-benzo[d]imidazole-1-carboxamide], in that order: 0.2 to 1 µM and 29 µg/mL (≈ 72.1 µM).
Consider `O=C(NCCCc1ccccc1)n1cnc2c(N3CCC4(CC3)COC4)cccc21` [Example 216, N-(3-Phenylpropyl)-4-(2-oxa-7-azaspiro[3.5]nonan-7-yl)-1H-benzo[d]imidazole-1-carboxamide], for which the IC50 against acid ceramidase (pH 4.5) was less than 0.2 µM. Moreover, the concentration in solution in series [1] (solubility) was 2.5 µg/mL (≈ 6.18 µM).
The compound `COc1nc2cc(-c3cncnc3)ccc2n1C(=O)NCC(C)C` [Example 81b, N-iso-butyl-2-methoxy-5-(pyrimidin-5-yl)-1H-benzo[d]imidazole-1-carboxamide] returned an IC50 on acid ceramidase (setting [2]) of 0.2 to 1 µM. In series [1], this compound had a solubility of 27 µg/mL (≈ 83 µM).
In turn, `CCOc1nc2c(OC)cccc2n1C(=O)NCCC1CC1` [Example 116, N-(2-Cyclopropylethyl)-2-ethoxy-4-methoxy-1H-benzo[d]imidazole-1-carboxamide] showed an IC50 at acid ceramidase (setting [2]) greater than 1 µM. In series [1], this compound gave a solubility of 14.1 µg/mL (≈ 46.5 µM).
The compound `COc1nc2ccc(C3CCN(C)CC3)cc2n1C(=O)NCCCc1ccccc1` [Example 195b, 2-methoxy-6-(1-methylpiperidin-4-yl)-N-(3-phenylpropyl)-1H-benzo[d]imidazole-1-carboxamide] registered an IC50 at acid ceramidase (pH 4.5) greater than 1 µM. Also, the solubility in series [1] stood at 39 µg/mL (≈ 95.9 µM).
For `CN1C[C@H]2C[C@@H]1CN2c1cccc2c1ncn2C(=O)NCCCc1ccccc1` [Example 246, 4-((1R,4R)-5-Methyl-2,5-diazabicyclo[2.2.1]heptan-2-yl)-N-(3-phenylpropyl)-1H-benzo[d]imidazole-1-carboxamide], in that order: less than 0.2 µM and 29 µg/mL (≈ 74.5 µM).
As for `COc1nc2cc(N3CCOCC3)ccc2n1C(=O)NCCCc1ccc(F)nc1` [Example 232b, N-(3-(6-fluoropyridin-3-yl)propyl)-2-methoxy-5-morpholino-1H-benzo[d]imidazole-1-carboxamide], the IC50 against acid ceramidase (pH 4.5) was greater than 1 µM. The solubility in series [1] came to 25 µg/mL (≈ 60.5 µM).
Regarding `COc1cccc2c1ncn2C(=O)NCCc1ccccc1` [Example 27, 4-Methoxy-N-phenethyl-1H-benzo[d]imidazole-1-carboxamide], the IC50 against acid ceramidase (setting [2]) was less than 0.2 µM. In series [1], this compound yielded a solubility of 7.8 µg/mL (≈ 26.4 µM).
The compound `CC(C)CCNC(=O)n1cnc2c(N3CCN(C4CN(C)C4)CC3)cccc21` [Example 204, N-iso-Pentyl-4-(4-(1-methylazetidin-3-yl)-piperazin-1-yl)-1H-benzo[d]imidazole-1-carboxamide] gave an IC50 on acid ceramidase (pH 4.5) of 0.2 to 1 µM. In addition, the solubility in series [1] was determined as 36 µg/mL (≈ 93.6 µM).
For `CC#CCNC(=O)n1cnc2c(N3CCN(C)CC3)cccc21` [Example 281, N-(But-2-yn-1-yl)-4-(4-methylpiperazin-1-yl)-1H-benzo[d]imidazole-1-carboxamide], in that order: 0.2 to 1 µM and 32 µg/mL (≈ 103 µM).
In the case of `CN1CCN(C2CN(c3cccc4c3ncn4C(=O)NCC#Cc3ccccc3)C2)CC1` [Example 332, 4-(3-(4-Methylpiperazin-1-yl)azetidin-1-yl)-N-(3-phenylprop-2-yn-1-yl)-1H-benzo[d]imidazole-1-carboxamide], the IC50 against acid ceramidase (pH 4.5) is less than 0.2 µM. The same compound had a solubility in series [1] of 24 µg/mL (≈ 56 µM).
With `CNC1CCN(c2cccc3c2ncn3C(=O)NCCCc2ccccc2)C1` (stereo not drawn) [Example 268, 4-(3-(Methylamino)pyrrolidin-1-yl)-N-(3-phenylpropyl)-1H-benzo[d]imidazole-1-carboxamide], the IC50 against acid ceramidase (pH 4.5) was less than 0.2 µM. The same compound gave a solubility in series [1] of 17 µg/mL (≈ 45 µM).
For `COc1nc2c(N3CC(N4CCN(C)CC4)C3)cccc2n1C(=O)NCCOc1ccccc1` [Example 329, 2-Methoxy-4-(3-(4-methylpiperazin-1-yl)azetidin-1-yl)-N-(2-phenoxyethyl)-1H-benzo[d]imidazole-1-carboxamide], in that order: greater than 1 µM and 38 µg/mL (≈ 81.8 µM).
Consider `O=C(NCCCc1ccccc1)n1cnc2c(N3CCN(C4CC4)CC3)cccc21` [Example 150, 4-(4-Cyclopropylpiperazin-1-yl)-N-(3-phenylpropyl)-1H-benzo[d]imidazole-1-carboxamide], for which, at acid ceramidase (setting [2]), the IC50 was less than 0.2 µM. This compound yielded a solubility in series [1] of 1.5 µg/mL (≈ 3.72 µM).
The compound `CN(C)C1CN(c2cccc3c2ncn3C(=O)NCCC#Cc2ccccc2)C1` [Example 364, 4-(3-(Dimethylamino)azetidin-1-yl)-N-(4-phenylbut-3-ynyl)-1H-benzo[d]imidazole-1-carboxamide] yielded an IC50 on acid ceramidase (setting [2]) of less than 0.2 µM. The same compound registered a solubility in series [1] of 17 µg/mL (≈ 43.9 µM).
For `O=C(NCCOc1ccccc1)n1cnc2ccccc21` [Example 18, N-(2-Phenoxyethyl)-1H-benzo[d]imidazole-1-carboxamide], in that order: less than 0.2 µM and 2 µg/mL (≈ 7.11 µM).
On to `COc1nc2cc(N3CCOCC3)ccc2n1C(=O)NCCCC1(C(F)(F)F)CC1` [Example 183b, 2-methoxy-5-morpholino-N-(3-(1-(trifluoromethyl)cyclopropyl)propyl)-1H-benzo[d]imidazole-1-carboxamide], for which the IC50 on acid ceramidase (pH 4.5) was less than 0.2 µM. In series [1], this compound had a solubility of 3 µg/mL (≈ 7.04 µM).
As for `COc1nc2cc(C3CCN(C)CC3)ccc2n1C(=O)NCCCc1ccccc1` [Example 195a, 2-Methoxy-5-(1-methylpiperidin-4-yl)-N-(3-phenylpropyl)-1H-benzo[d]imidazole-1-carboxamide], the IC50 against acid ceramidase (pH 4.5) is greater than 1 µM. This compound displayed a solubility in series [1] of 43 µg/mL (≈ 106 µM).
The corresponding values for `CN1CC2CCC1CN2c1cccc2c1ncn2C(=O)NCCC1CCC(F)(F)C1` (stereo not drawn) [Example 292, N-(2-(3,3-Difluorocyclopentyl)ethyl)-4-(5-methyl-2,5-diazabicyclo[2.2.2]octan-2-yl)-1H-benzo[d]imidazole-1-carboxamide] are 0.2 to 1 µM and 36 µg/mL (≈ 86.2 µM).
The corresponding values for `CN1CC2CC(C1)N2c1cccc2c1ncn2C(=O)NCCCc1ccccc1` [Example 245, 4-(3-Methyl-3,6-diazabicyclo[3.1.1]heptan-6-yl)-N-(3-phenylpropyl)-1H-benzo[d]imidazole-1-carboxamide] are less than 0.2 µM and 32 µg/mL (≈ 82.2 µM).
For the compound `CC(C)CCNC(=O)n1cnc2c(N3CCN(CCC#N)CC3)cccc21` [Example 200, 4-(4-(2-Cyanoethyl)piperazin-1-yl)-N-iso-pentyl-1H-benzo[d]imidazole-1-carboxamide], the IC50 on acid ceramidase (pH 4.5) lay in the range of 0.2 to 1 µM. In addition, in series [1], the solubility came out at 30 µg/mL (≈ 81.4 µM).
On acid ceramidase (setting [2]), `O=C(NCCc1ccccc1)n1cnc2c(F)cccc21` [Example 64, 4-Fluoro-N-phenethyl-1H-benzo[d]imidazole-1-carboxamide] came in with an IC50 of less than 0.2 µM. In series [1], this compound gave a solubility of 3.6 µg/mL (≈ 12.7 µM).
The corresponding values for `CCCCNC(=O)n1cnc2cc(OC)ccc21` [Example 51a, N-Butyl-5-methoxy-1H-benzo[d]imidazole-1-carboxamide] are less than 0.2 µM and 7.2 µg/mL (≈ 29.1 µM).
Consider `CN1CCN(c2cccc3c2ncn3C(=O)NCCC2CCCC2(F)F)CC1` (stereo not drawn) [Example 259, N-(2-(2,2-Difluorocyclopentyl)ethyl)-4-(4-methylpiperazin-1-yl)-1H-benzo[d]imidazole-1-carboxamide], for which, at acid ceramidase (pH 4.5), the IC50 is 0.2 to 1 µM. In addition, the solubility in series [1] worked out at 21 µg/mL (≈ 53.6 µM).
In turn, `COc1nc2cc(N3CCN(C(C)=O)CC3)ccc2n1C(=O)NCCCc1ccccc1` [Example 236a, 5-(4-Acetylpiperazin-1-yl)-2-methoxy-N-(3-phenylpropyl)-1H-benzo[d]imidazole-1-carboxamide] displayed an IC50 on acid ceramidase (pH 4.5) of less than 0.2 µM. The compound further yielded a solubility in series [1] of 18 µg/mL (≈ 41.3 µM).
Compound `COc1nc2cc(-c3cccnc3)ccc2n1C(=O)NCCc1ccccc1` [Example 30a, 2-Methoxy-N-phenethyl-5-(pyridin-3-yl)-1H-benzo[d]imidazole-1-carboxamide] came in with an IC50 against acid ceramidase (setting [2]) of less than 0.2 µM. Also, the solubility in series [1] was determined as 1.6 µg/mL (≈ 4.3 µM).
For `CCCCNC(=O)n1cnc2cc(F)ccc21` [Example 67, N-Butyl-5-fluoro-1H-benzo[d]imidazole-1-carboxamide], in that order: less than 0.2 µM and 22.5 µg/mL (≈ 95.6 µM).
The compound `CC(C)CCNC(=O)n1cnc2c(N3CCN4CCOC[C@H]4C3)cccc21` [Example 199, (R)-4-(Hexahydropyrazino[2,1-c][1,4]oxazin-8(1H)-yl)-N-isopentyl-1H-benzo[d]imidazole-1-carboxamide] showed an IC50 at acid ceramidase (pH 4.5) greater than 1 µM. The solubility in series [1] was 31 µg/mL (≈ 83.4 µM).
`CCCCNC(=O)n1cnc2c(C3CCN(C)CC3)c(C(F)(F)F)ccc21` [Example 56, N-Butyl-4-(1-methylpiperidin-4-yl)-5-(trifluoromethyl)-1H-benzo[d]imidazole-1-carboxamide] showed an IC50 on acid ceramidase (setting [2]) greater than 1 µM. The compound further registered a solubility in series [1] of 28.1 µg/mL (≈ 73.5 µM).

These data come from patent publication US20220380319A1 (Bial - R&D Investments, S.A., priority 2019, published 2022).
